From PMC6896740, “Safety, tolerability, pharmacokinetics, and pharmacodynamics of PF-06650833, a selective interleukin-1 receptor-associated kinase 4 (IRAK4) inhibitor, in single and multiple ascending dose randomized phase 1 studies in healthy subjects” (Arthritis Research & Therapy, 2019)

What was measured:
clinical = settings: human, in vivo; for AUC(0-t): AUClast; for Tmax: median (range); for Vd/F: Vz/F
From the text: (§1) Study 1 (B7921001; NCT02224651) was a 96-day, phase 1, within-cohort, randomized, double-blind, sponsor-open, placebo-substitution, five-period crossover, SAD study in healthy adult subjects (Fig. 1a). Subjects were sequentially enrolled into four cohorts of ten subjects each. Within each cohort, the subjects were randomized into a maximum of five periods. Within each period, eight subjects and two subjects were randomized to receive PF-06650833 and placebo, respectively. In this placebo-substitution design, all subjects within a cohort received one or more doses of PF-06650833 and/or placebo. Single oral doses of PF-06650833 IR formulations from 1 to 6000 mg, and MR formulations from 30 to 300 mg, were administered in fasted (overnight fast of ≥ 10 h) and/or fed (high-fat breakfast meal) states. Doses were escalated sequentially by period within each cohort (see Fig. 1a for final dosing scheme), based upon the evaluation of ≥ 48 h of safety and tolerability for all subjects and ≥ 8 h of PK data for at least six subjects receiving PF-06650833 and one subject receiving placebo. Dose escalation was to cease when either the limits of safety and/or tolerability were reached, the projected exposure at the subsequent dose exceeded the toxicokinetic limit (TK) established based on the no observable adverse effect level (NOAEL) in relevant animal studies, or a plateau in exposure was reached.
(§2) The effects of food on the plasma PK profile of the IR and MR formulations were explored in cohorts 1 and 3, respectively, by administering 30 mg doses of PF-06650833 in a fasted state and after a high-fat meal. A 1000-mg dose of the IR formulation was also tested in cohort 3 in an attempt to identify a maximum tolerated dose (MTD). Since TK limits were not reached with the IR formulation at doses up to 1000 mg, the IR doses were escalated to 2000 and 6000 mg with a high-fat meal in cohort 4 (Fig. 1a).
For both studies, samples of blood (and urine in study 2) were taken for evaluation of PK/PD parameters (see Additional file 1: Supplemental Methods). PK samples were obtained at the nominal time relative to dosing (± 10%). Plasma and urine samples were analyzed using validated, sensitive, and specific liquid chromatography tandem mass spectrometric methods (at Pfizer Inc., Groton, CT, USA, for study 1 and at Worldwide Pharmacokinetics, Dynamics and Metabolism, Cambridge, MA, USA, for study 2). The lower limit of quantification for PF-06650833 in plasma was 0.0500 ng/mL. The lower limit of quantification for PF-06650833 in urine was 1.00 ng/mL. Serum samples were also analyzed for hsCRP, and plasma samples were analyzed for 4β-hydroxycholesterol and cholesterol.
PK parameters were calculated using non-compartmental analysis of concentration-time data. For study 1 only, data from cohort 1 (period 4 [IR 30 mg] versus period 5 [IR 30 mg + food]) and cohort 3 (period 2 [MR 30 mg] versus period 3 [MR 30 mg + food]) were used to estimate the effect of food intake. Cmax and AUC were calculated for each subject and treatment, with and without food, after which a within-subject difference could be found between fed (high-fat meal) and fasted doses. Analysis of covariance was used to model these within-subject differences and to calculate 95% confidence intervals (CIs) for the differences for each dose (IR 30 mg and MR 30 mg). For study 2 only, the amounts of PF-06650833 in urine and renal clearance were listed and summarized descriptively. As part of the routine safety laboratory monitoring, the presence of any atypical crystals in urine specimens was semi-quantitatively assessed microscopically by typical histopathologic methods and scored as numbers of crystals per high power field (hpf); higher abundance (moderate or many) was defined as ≥ 15/hpf. No formal interim analyses were conducted.
4 In both studies, subjects were assigned to dose groups according to a pre-defined
5 randomization schedule. Each subject was given a unique Electronic Data Capture […]

healthy adult subjects = test: Study 1 (SAD) safety and tolerability: TEAEs; format: in vivo
From the text: as §1, §2
Safety assessments included incidence and severity of treatment-emergent AEs (TEAEs) and discontinuation due to TEAEs, incidence of treatment-emergent clinical laboratory abnormalities, and proportion of subjects meeting with pre-defined criteria for potential clinical concern in vital signs and electrocardiogram (ECG) parameters.
The safety analysis set was defined as all subjects who received at least one dose of study treatment, and data were summarized descriptively. The PK concentration analysis set was defined as all enrolled, treated subjects who had at least one concentration in at least one treatment period. The PK parameter analysis set was defined as all enrolled, treated subjects who had at least one of the PK parameters of interest in at least one treatment period. The PD analysis set was defined as all enrolled subjects who received at least one dose of PF-06650833 and had at least one PD parameter. PK/PD data were summarized descriptively.

[1] = IR 2000 mg single dose, fed (high-fat), 8 evaluable

**Q.** What does the source list for `CC[C@@H]1[C@H](F)C(=O)N[C@@H]1COc1nccc2cc(C(N)=O)c(OC)cc12` [PF-06650833, 1-{[(2S,3S,4S)-3-Ethyl-4-fluoro-5-oxopyrrolidin-2-yl]methoxy}-7-methoxyisoquinoline-6-carboxamide]?
**A.** Mean terminal half-life t½ (clinical): 9.4 to 11.7 h; CL/F, geometric mean (%CV) (clinical; 1 mg): 194.3 (37) L/h; AUC(0-inf) (clinical; 1 mg, AUCinf, geometric mean (%CV)): 5.14 ng·h/mL; AUC(0-t) (clinical; 1 mg, geometric mean (%CV)): 4.92 ng·h/mL; Cmax (clinical; 1 mg, geometric mean (%CV)): 1.75 ng/mL; MRT (clinical; 1 mg, mean ± SD): 3.12 ± 0.525 h; Tmax (clinical; 1 mg): 1 h; Vd/F (clinical; 1 mg, geometric mean (%CV)): 517 L; half-life (clinical; 1 mg, t½, mean ± SD): 1.86 ± 0.24 h; CL/F, geometric mean (%CV) (clinical; 3 mg): 173.1 (49) L/h; AUC(0-inf) (clinical; 3 mg, AUCinf, geometric mean (%CV)): 17.3 ng·h/mL; AUC(0-t) (clinical; 3 mg, geometric mean (%CV)): 17 ng·h/mL; Cmax (clinical; 3 mg, geometric mean (%CV)): 5.54 ng/mL; MRT (clinical; 3 mg, mean ± SD): 3.4 ± 0.622 h; Tmax (clinical; 3 mg): 0.525 h; Vd/F (clinical; 3 mg, geometric mean (%CV)): 567 L; half-life (clinical; 3 mg, t½, mean ± SD): 2.34 ± 0.67 h; CL/F, geometric mean (%CV) (clinical; 10 mg): 121.0 (48) L/h; AUC(0-inf) (clinical; 10 mg, AUCinf, geometric mean (%CV)): 82.7 ng·h/mL; AUC(0-t) (clinical; 10 mg, geometric mean (%CV)): 81.9 ng·h/mL; Cmax (clinical; 10 mg, geometric mean (%CV)): 22.6 ng/mL; MRT (clinical; 10 mg, mean ± SD): 4.31 ± 0.787 h; Tmax (clinical; 10 mg): 1 h; Vd/F (clinical; 10 mg, geometric mean (%CV)): 618 L; half-life (clinical; 10 mg, t½, mean ± SD): 3.54 ± 0.139 h; AUCinf (food-effect analysis) (clinical; 30 mg): 211.3 ng·h/mL; AUCinf, geometric mean (%CV) (clinical; 30 mg): 206.4 (29) ng•h/mL; AUClast, geometric mean (%CV) (clinical; 30 mg): 203.7 (29) ng•h/mL; AUC(0-inf) (clinical; 30 mg, AUCinf (food-effect analysis)): 261 ng·h/mL; AUC(0-inf) (clinical; 30 mg, AUCinf, geometric mean (%CV)): 263 ng·h/mL; AUC(0-t) (clinical; 30 mg, geometric mean (%CV)): 249 ng·h/mL; AUCinf, geometric mean (%CV) (clinical; 100 mg): 646.4 (48) ng•h/mL; AUClast, geometric mean (%CV) (clinical; 100 mg): 549.4 (38) ng•h/mL; MRT, mean ± SD (clinical; 100 mg): 11.2 ± 4.81 h; t½, mean ± SD (clinical; 100 mg): 15.0 ± 5.22 h; AUC(0-inf) (clinical; 100 mg, AUCinf, geometric mean (%CV)): 839 ng·h/mL; AUC(0-t) (clinical; 100 mg, geometric mean (%CV)): 762 ng·h/mL; MRT (clinical; 100 mg, mean ± SD): 19.3 ± 5.73 h; half-life (clinical; 100 mg, t½, mean ± SD): 9.35 ± 3.62 h; AUCinf, geometric mean (%CV) (clinical; 300 mg): 1477 (71) ng•h/mL; AUClast, geometric mean (%CV) (clinical; 300 mg): 1436 (57) ng•h/mL; Tmax, median (range) (clinical; 300 mg): 2 (0.500–2.00) h; Vz/F, geometric mean (%CV) (clinical; 300 mg): 5310 (69) L; t½, mean ± SD (clinical; 300 mg): 19.9 ± 9.54 h; AUC(0-inf) (clinical; 300 mg, AUCinf, geometric mean (%CV)): 2040 ng·h/mL; AUC(0-t) (clinical; 300 mg, geometric mean (%CV)): 1970 ng·h/mL; Tmax (clinical; 300 mg): 4 h; Vd/F (clinical; 300 mg, geometric mean (%CV)): 6820 L; half-life (clinical; 300 mg, t½, mean ± SD): 38.8 ± 21.1 h; CL/F, geometric mean (%CV) (clinical; 1000 mg): 411.4 (40) L/h; AUC(0-inf) (clinical; 1000 mg, AUCinf, geometric mean (%CV)): 2430 ng·h/mL; AUC(0-t) (clinical; 1000 mg, geometric mean (%CV)): 2270 ng·h/mL; Cmax (clinical; 1000 mg, geometric mean (%CV)): 309 ng/mL; MRT (clinical; 1000 mg, mean ± SD): 18.7 ± 4.37 h; Tmax (clinical; 1000 mg): 0.75 h; Vd/F (clinical; 1000 mg, geometric mean (%CV)): 14600 L; half-life (clinical; 1000 mg, t½, mean ± SD): 44.9 ± 69.6 h; half-life (clinical; Mean terminal half-life t½): 10.2 to 15 h; Infections and infestations: subjects with AE, all causalities (treatment-related) (healthy adult subjects; IR 1 mg single dose, fasted, 8 evaluable): 1 (0); Infections and infestations: subjects with AE, all causalities (treatment-related) (healthy adult subjects; [1]): 1 (0); Upper respiratory tract infection: subjects with AE, all causalities (treatment-related) (healthy adult subjects; [1]): 1 (0); Serious AEs or deaths (healthy adult subjects; all dose groups): No serious AEs or deaths; Subjects with treatment-related TEAEs (healthy adult subjects; human, in vivo): 4; Total treatment-related TEAEs (healthy adult subjects; human, in vivo): 10; Severity of TEAEs (healthy adult subjects; in vivo): mild or moderate; Treatment-related TEAEs (healthy adult subjects; in vivo): No treatment-related TEAEs; Maximum tolerated dose (healthy adult subjects; single doses IR up to 6000 mg, MR up to 300 mg): not established
